Results from patent US11130769B2 (Prelude Therapeutics Incorporated, priority 2018, dated 2021).
Where two headings read alike, the source gives them in different places.

Assays:
H929 cells = assay: Cell viability assay (H929 10 FBS); format: cell-based; conditions: read-out: H929_10FBS IC50
Outline: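 ATP-based luminescence (CellTiter-Glo or ATPlite 1 Step, 30-60 min at RT) gauged viability of H929 myeloma cells after 24 h compound treatment at 37 °C. Cells plated at 4000 per well in 10% FBS RPMI 1640 supplemented with pyruvate, HEPES and glucose.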

MCL-1 = MCL-1 (Homo sapiens (Human), UniProt Q07820); assay: Cell free Mcl-1:Bim affinity assay (fluorescence polarization competition); format: binding; conditions: 15 nM MCL-1, 5 nM FITC-Bim, 1 hour at room temperature, read-out: BIM_Ki
Outline: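 Fluorescence polarization competition: 10-point 3-fold compound dilutions displaced 5 nM FITC-Bim from 15 nM MCL-1 over 1 h at room temperature. Ki was derived from the fitted IC50 using the Nikolovska-Coleska equation, with percent inhibition normalized to DMSO and positive controls.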

[1] = Homo sapiens, NCI-H929, 24 hours

Chain of MCL-1 (Q07820 whole entry): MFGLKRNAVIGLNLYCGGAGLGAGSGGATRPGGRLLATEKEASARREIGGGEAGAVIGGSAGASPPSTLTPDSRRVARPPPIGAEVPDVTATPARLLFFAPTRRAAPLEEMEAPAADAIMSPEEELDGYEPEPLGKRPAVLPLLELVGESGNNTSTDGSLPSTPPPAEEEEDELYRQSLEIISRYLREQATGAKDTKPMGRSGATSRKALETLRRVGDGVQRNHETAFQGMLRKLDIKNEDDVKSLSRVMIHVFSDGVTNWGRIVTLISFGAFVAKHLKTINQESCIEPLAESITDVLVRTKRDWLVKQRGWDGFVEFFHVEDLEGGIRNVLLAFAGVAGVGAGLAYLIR

Row | Molecule | IC50 (H929 cells; [1]) | Ki (MCL-1; class symbols) | Ki (MCL-1; numeric values) | IC50 (H929 cells; 24 hours)
1 | CO[C@@H]1/C=C/COCC(=O)NS(=O)(=O)c2ccc3c(c2)N(C[C@@H]2CC[C@H]21)C[C@@]1(CCCc2cc(Cl)ccc21)CO3 [Example 112, (3R,6R,7R,8E,22S)-6′-Chloro-7-methoxy-15,15-dioxo-spiro[[11,20]dioxa[15]thia-1,14-diazatetracyclo[14.7.2.03,6.019,24]pentacosa[8,16(25),17,19(24)]tetraene-22,1′-tetralin]-13-one] | > 1000 nM | 1 to 100 nM | – | –
2 | CO[C@@H]1/C=C/COC(C)(C)C(=O)NS(=O)(=O)c2ccc3c(c2)N(C[C@@H]2CC[C@H]21)C[C@@]1(CCCc2cc(Cl)ccc21)CO3 [Example 30, (3R,6R,7R,8E,22S)-6′-Chloro-7-methoxy-12,12-dimethyl-15,15-dioxo-spiro[[11,20]dioxa-15-thia-1,14-diazatetracyclo[14.7.2.03,6.019,24]pentacosa[8,16(25),17,19(24)]tetraene-22,1′-tetralin]-13-one] | < 1000 nM | < 1 nM | – | –
3 | CC(=O)NS(=O)(=O)c1ccc2c(c1)N(Cc1ccccc1)CC1(CCCc3cc(Cl)ccc31)CO2 (stereo not drawn) [Example 4, N-(5-Benzyl-6′-chloro-spiro[2,4-dihydro-1,5-benzoxazepine-3,1′-tetralin]-7-yl)sulfonylacetamide] | > 1000 nM | – | 207 nM | –
4 | CC(C)(C)OC(=O)N1CCC[C@H](OC(=O)NS(=O)(=O)c2ccc3c(c2)N(CC2CCC2)CC2(CCCc4cc(Cl)ccc42)CO3)C1 (stereo partly drawn) [Example 23, tert-Butyl (3S)-3-[[6′-chloro-5-(cyclobutylmethyl)spiro[2,4-dihydro-1,5-benzoxazepine-3,1′-tetralin]-7-yl]sulfonylcarbamoyloxy]piperidine-1-carboxylate] | > 1000 nM | – | 73.6 nM | –
5 | CO[C@H]1/C=C/COCC(=O)NS(=O)(=O)c2ccc3c(c2)N(C[C@@H]2CC[C@H]21)C[C@@]1(CCCc2cc(Cl)ccc21)CO3 [Example 111, (3R,6R,7S,8E,22S)-6′-Chloro-7-methoxy-15,15-dioxo-spiro[[11,20]dioxa[15]thia-1,14-diazatetracyclo[14.7.2.03,6.019,24]pentacosa[8,16(25),17,19(24)]tetraene-22,1′-tetralin]-13-one] | > 1000 nM | 1 to 100 nM | – | –
6 | (4′Z,5′E)-6-Chloro-3,4-dihydro-2H-spiro[naphthalene-1,3′-13-thia-12-aza-1(5,7)-benzo[b][1,4]oxazepina-3(4,1)-pyrazolacyclotridecaphanen]-5′-en-11′-one 13′,13′-dioxide and (4′Z,5′Z)-6-chloro-3,4-dihydro-2H-spiro[naphthalene-1,3′-13-thia-12-aza-1(5,7)-benzo[b][1,4]oxazepina-3(4,1)-pyrazolacyclotridecaphanen]-5′-en-11′-one 13′,13′-dioxide [Example 11] | – | – | 503 nM | > 1000 nM
7 | O=C(Cc1ccncc1)NS(=O)(=O)c1ccc2c(c1)N(CC1CCC1)C[C@@]1(CCCc3cc(Cl)ccc31)CO2 [Example 19, 2-Pyridin-4-yl-N-[(3S)-6′-chloro-5-(cyclobutylmethyl)spiro[2,4-dihydro-1,5-benzoxazepine-3,1′-tetralin]-7-yl]sulfonyl-acetamide] | > 1000 nM | – | 9.3 nM | –
8 | CO[C@@H]1/C=C/CNC2(CC2)C(=O)NS(=O)(=O)c2ccc3c(c2)N(C[C@@H]2CC[C@H]21)C[C@@]1(CCCc2cc(Cl)ccc21)CO3 [Example 119, (3R,6R,7R,8E,22S)-6′-Chloro-7-methoxy-12,12-ethylene-15,15-dioxo-spiro[20-oxa-15-thia-1,11,14-triazatetracyclo[14.7.2.03,6.019,24]pentacosa[8,16(25),17,19(24)]tetraene-22,1′-tetralin]-13-one] | < 1000 nM | 1 to 100 nM | – | –
9 | CC1(C)OC/C=C/[C@H](OC(=O)NC2COC2)[C@@H]2CC[C@H]2CN2C[C@@]3(CCCc4cc(Cl)ccc43)COc3ccc(cc32)S(=O)(=O)NC1=O [Example 192, [(3R,6R,7S,8E,22S)-6′-Chloro-12,12-dimethyl-13,15,15-trioxo-spiro[11,20-dioxa-15-thia-1,14-diazatetracyclo[14.7.2.03,6.019,24]pentacosa-8,16,18,24-tetraene-22,1′-tetralin]-7-yl] N-(oxetan-3-yl)carbamate] | < 500 nM | < 1 nM | – | –
10 | CCN1C/C=C/[C@H](OC(=O)NC2CCOCC2)[C@@H]2CC[C@H]2CN2C[C@@]3(CCCc4cc(Cl)ccc43)COc3ccc(cc32)S(=O)(=O)NC(=O)C1(C)C [Example 220, [(3R,6R,7S,8E,22S)-6′-Chloro-11-ethyl-12,12-dimethyl-13,15,15-trioxo-spiro[20-oxa-15-thia-1,11,14-triazatetracyclo[14.7.2.03,6.019,24]pentacosa-8,16,18,24-tetraene-22,1′-tetralin]-7-yl]N-tetrahydropyran-4-ylcarbamate] | < 500 nM | < 1 nM | – | –

Now from value to molecule, other results behind:

Row | IC50 (H929 cells; [1]) | Ki (MCL-1; class symbols) | Ki (MCL-1; numeric values) | Molecule | IC50 (H929 cells; 24 hours)
11 | < 500 nM | < 1 nM | – | CN1C/C=C/[C@H](OCCN2CC(F)(F)C2)[C@@H]2CC[C@H]2CN2C[C@@]3(CCCc4cc(Cl)ccc43)COc3ccc(cc32)S(=O)(=O)NC(=O)C1(C)C [Example 287, (3R,6R,7S,8E,22S)-6′-Chloro-7-[2-(3,3-difluoroazetidin-1-yl)ethoxy]-11,12,12-trimethyl-15,15-dioxo-spiro[20-oxa-15-thia-1,11,14-triazatetracyclo[14.7.2.03,6.019,24]pentacosa-8,16,18,24-tetraene-22,1′-tetralin]-13-one] | –
12 | < 500 nM | < 1 nM | – | CN(C(=O)O[C@H]1/C=C/CN(C)C2(CCC2)C(=O)NS(=O)(=O)c2ccc3c(c2)N(C[C@@H]2CC[C@H]21)C[C@@]1(CCCc2cc(Cl)ccc21)CO3)C1COC1 [Example 240, [(3R,6R,7S,8E,22S)-6′-Chloro-11-methyl-12,12-(1,3-propylene)-13,15,15-trioxo-spiro[20-oxa-15-thia-1,14-triazatetracyclo[14.7.2.03,6.019,24]pentacosa-8,16,18,24-tetraene-22,1′-tetralin]-7-yl] N-methyl-N-(oxetan-3-yl)carbamate] | –
13 | < 500 nM | < 1 nM | – | O=C(O[C@H]1/C=C/COC2(CCC2)C(=O)NS(=O)(=O)c2ccc3c(c2)N(C[C@@H]2CC[C@H]21)C[C@@]1(CCCc2cc(Cl)ccc21)CO3)N1CCC1 [Example 232, [(3R,6R,7S,8E,22S)-6′-Chloro-12,12-(1,3-propylene)-13,15,15-trioxo-spiro[11,20-dioxa-15-thia-1,14-diazatetracyclo[14.7.2.03,6.019,24]pentacosa-8,16(25),17,19(24)-tetraene-22,1′-tetralin]-7-yl] N,N-1,3-propylene carbamate] | –
14 | < 500 nM | < 1 nM | – | O=C1NS(=O)(=O)c2ccc3c(c2)N(C[C@@H]2CC[C@H]2[C@@H](O)/C=C/COC12CC2)C[C@@]1(CCCc2cc(Cl)ccc21)CO3 [Example 40, (3R,6R,7S,8E,22S)-6′-Chloro-7-hydroxy-12,12-ethylene-15,15-dioxo-spiro[11,20-dioxa-15-thia-1,14-diazatetracyclo[14.7.2.03,6.019,24]pentacosa[8,16(25),17,19(24)]tetraene-22,1′-tetralin]-13-one] | –
15 | < 500 nM | < 1 nM | – | CN1C/C=C/[C@H](OC(=O)N2CCOCC2)[C@@H]2CC[C@H]2CN2C[C@@]3(CCCc4cc(Cl)ccc43)COc3ccc(cc32)S(=O)(=O)NC(=O)C1(C)C [Example 199, [(3R,6R,7S,8E,22S)-6′-Chloro-11,12,12-trimethyl-13,15,15-trioxo-spiro[20-oxa-15-thia-1,11,14-triazatetracyclo[14.7.2.03,6.019,24]pentacosa-8,16,18,24-tetraene-22,1′-tetralin]-7-yl]morpholine-4-carboxylate] | –
16 | < 500 nM | < 1 nM | – | CC1(C)OC/C=C\[C@H](O)[C@@H]2CC[C@H]2CN2C[C@@]3(CCCc4cc(Cl)ccc43)COc3ccc(cc32)S(=O)(=O)NC1=O [Example 33, (3R,6R,7S,8Z,22S)-6′-Chloro-7-hydroxy-12,12-dimethyl-15,15-dioxo-spiro[11,20-dioxa-15-thia-1,14-diazatetracyclo[14.7.2.03,6.019,24]pentacosa-8,16,18,24-tetraene-22,1′-tetralin]-13-one] | –
17 | < 500 nM | < 1 nM | – | CN(C)C(=O)O[C@H]1/C=C/COC2(CCC2)C(=O)NS(=O)(=O)c2ccc3c(c2)N(C[C@@H]2CC[C@H]21)C[C@@]1(CCCc2cc(Cl)ccc21)CO3 [Example 231, [(3R,6R,7S,8E,22S)-7′-Chloro-12,12-(1,3-propylene)-13,15,15-trioxo-spiro[11,20-dioxa-15λ6-thia-1,14-diazatetracyclo[14.7.2.03,6.019,24]pentacosa-8,16,18,24-tetraene-22,4′-chromane]-7-yl] N,N-dimethyl-1-carboxylate] | –
18 | < 500 nM | < 1 nM | – | CO[C@@H]1CCN(C(=O)O[C@H]2/C=C/COC3(CCC3)C(=O)NS(=O)(=O)c3ccc4c(c3)N(C[C@@H]3CC[C@H]32)C[C@@]2(CCCc3cc(Cl)ccc32)CO4)C1 [Example 229, [(3R,6R,7S,8E,22S)-6′-Chloro-12,12-(1,3-propylene)-13,15,15-trioxo-spiro[11,20-dioxa-15-thia-1,14-diazatetracyclo[14.7.2.03,6.019,24]pentacosa-8,16,18,24-tetraene-22,1′-tetralin]-7-yl] (3S)-3-methoxypyrrolidine-1-carboxylate] | –
